# Measurements published in PubChem BioAssay AID222 (DTP/NCI, 2004).
# Values joined by “and” are separate entries in the source; they are usually repeats but may differ in a detail not shown here. Equal entries are not always repeated. Toxic doses and inconclusive results are not listed.
# Test system: C57BL/6 mice, intracerebral ependymoblastoma, median survival T/C
# Test: NCI In Vivo Anticancer Drug Screen. Data for tumor model Ependymoblastoma (intracerebral) in C57BL/6 mice
# Details: endpoint: median survival time, higher = longer survival
# Procedure: The antitumor activity of compounds was measured in mice bearing transplantable tumors. Survival or tumor size were measured and the results are expressed as the measurement made in the treated group (T) divided by the measurement made in the vehicle treated control group (C). The tumor model used in this assay is Ependymoblastoma (intracerebral) in C57BL/6 mice
# [1] = dose: 32.0 mg/kg/injection, schedule: Q01DX001 (oral), vehicle: Klucel (hydroxypropylcellulose) (HPC)
# [2] = dose: 64.0 mg/kg/injection, schedule: Q01DX001 (oral), vehicle: Klucel (hydroxypropylcellulose) (HPC)
# [3] = dose: 128.0 mg/kg/injection, schedule: Q01DX001 (oral), vehicle: Klucel (hydroxypropylcellulose) (HPC)
# [4] = dose: 256.0 mg/kg/injection, schedule: Q01DX001 (oral), vehicle: Klucel (hydroxypropylcellulose) (HPC)
compound,measurement,setting,value
OC(CBr)C(O)C(O)C(O)CBr (stereo not drawn),T/C,"dose: 8.0 mg/kg/injection, schedule: Q01DX005 (ip), vehicle: saline",101 % of control
same,T/C,"dose: 12.0 mg/kg/injection, schedule: Q01DX005 (ip), vehicle: saline",89 % of control
same,T/C,"dose: 18.0 mg/kg/injection, schedule: Q01DX005 (ip), vehicle: saline",100 % of control
same,T/C,"dose: 27.0 mg/kg/injection, schedule: Q01DX005 (ip), vehicle: saline",95 % of control
same,T/C,"dose: 32.0 mg/kg/injection, schedule: Q01DX001 (ip), vehicle: Klucel (hydroxypropylcellulose) (HPC)",108 % of control
same,T/C,[1],96 % of control
same,T/C,"dose: 32.0 mg/kg/injection, schedule: Q01DX005 (oral), vehicle: Klucel (hydroxypropylcellulose) (HPC)",97 % of control
same,T/C,"dose: 50.0 mg/kg/injection, schedule: Q01DX005 (ip), vehicle: saline",107 % of control
same,T/C,"dose: 60.0 mg/kg/injection, schedule: Q01DX005 (ip), vehicle: saline",116 % of control
same,T/C,"dose: 64.0 mg/kg/injection, schedule: Q01DX001 (ip), vehicle: Klucel (hydroxypropylcellulose) (HPC)",111 % of control
same,T/C,[2],99 % of control
same,T/C,"dose: 64.0 mg/kg/injection, schedule: Q01DX005 (oral), vehicle: Klucel (hydroxypropylcellulose) (HPC)",102 % of control
same,T/C,"dose: 100.0 mg/kg/injection, schedule: Q01DX001 (ip), vehicle: Klucel (hydroxypropylcellulose) (HPC)",103 % of control
same,T/C,"dose: 100.0 mg/kg/injection, schedule: Q01DX005 (ip), vehicle: saline",92 % of control and 120 % of control
same,T/C,"dose: 100.0 mg/kg/injection, schedule: Q#A X002 (ip), vehicle: Klucel (hydroxypropylcellulose) (HPC)",102 % of control
same,T/C,"dose: 128.0 mg/kg/injection, schedule: Q01DX001 (ip), vehicle: Klucel (hydroxypropylcellulose) (HPC)",109 % of control
same,T/C,[3],100 % of control
same,T/C,"dose: 200.0 mg/kg/injection, schedule: Q01DX001 (ip), vehicle: Klucel (hydroxypropylcellulose) (HPC)",102 % of control and 112 % of control and 115 % of control
same,T/C,"dose: 200.0 mg/kg/injection, schedule: Q01DX005 (ip), vehicle: saline",96 % of control and 107 % of control
same,T/C,"dose: 200.0 mg/kg/injection, schedule: Q#A X002 (ip), vehicle: Klucel (hydroxypropylcellulose) (HPC)",102 % of control and 106 % of control
same,T/C,"dose: 256.0 mg/kg/injection, schedule: Q01DX001 (ip), vehicle: Klucel (hydroxypropylcellulose) (HPC)",122 % of control
same,T/C,[4],101 % of control
same,T/C,"dose: 400.0 mg/kg/injection, schedule: Q01DX001 (ip), vehicle: Klucel (hydroxypropylcellulose) (HPC)",105 % of control and 106 % of control
same,T/C,"dose: 400.0 mg/kg/injection, schedule: Q#A X002 (ip), vehicle: Klucel (hydroxypropylcellulose) (HPC)",111 % of control
same,T/C,"dose: 512.0 mg/kg/injection, schedule: Q01DX001 (ip), vehicle: Klucel (hydroxypropylcellulose) (HPC)",96 % of control
same,T/C,"dose: 512.0 mg/kg/injection, schedule: Q01DX001 (oral), vehicle: Klucel (hydroxypropylcellulose) (HPC)",100 % of control
same,T/C,"dose: 1024.0 mg/kg/injection, schedule: Q01DX001 (ip), vehicle: Klucel (hydroxypropylcellulose) (HPC)",96 % of control
same,T/C,"dose: 1024.0 mg/kg/injection, schedule: Q01DX001 (oral), vehicle: Klucel (hydroxypropylcellulose) (HPC)",100 % of control
O=NN(CCCl)C(=O)NC1CCC(=O)NC1=O (stereo not drawn),T/C,"dose: 0.5 mg/kg/injection, schedule: Q01DX005 (ip), vehicle: Klucel (hydroxypropylcellulose) (HPC)",103 % of control
same,T/C,"dose: 0.5 mg/kg/injection, schedule: Q01DX005 (ip), vehicle: suspension in saline",118 % of control
same,T/C,"dose: 0.62 mg/kg/injection, schedule: Q01DX001 (ip), vehicle: other",100 % of control
same,T/C,"dose: 1.0 mg/kg/injection, schedule: Q01DX005 (ip), vehicle: Klucel (hydroxypropylcellulose) (HPC)",100 % of control
same,T/C,"dose: 1.0 mg/kg/injection, schedule: Q01DX005 (ip), vehicle: suspension in saline",114 % of control
same,T/C,"dose: 1.25 mg/kg/injection, schedule: Q01DX001 (ip), vehicle: other",101 % of control
same,T/C,"dose: 1.75 mg/kg/injection, schedule: Q01DX001 (ip), vehicle: other",104 % of control
same,T/C,"dose: 2.0 mg/kg/injection, schedule: Q#A X002 (ip), vehicle: saline",100 % of control and 111 % of control
same,T/C,"dose: 2.5 mg/kg/injection, schedule: Q01DX001 (ip), vehicle: other",100 % of control
same,T/C,"dose: 3.5 mg/kg/injection, schedule: Q01DX001 (ip), vehicle: other",102 % of control and 104 % of control
same,T/C,"dose: 3.5 mg/kg/injection, schedule: Q01DX001 (ip), vehicle: saline with Tween-80",95 % of control
same,T/C,"dose: 4.0 mg/kg/injection, schedule: Q01DX001 (ip), vehicle: saline with Tween-80",106 % of control
same,T/C,"dose: 4.0 mg/kg/injection, schedule: Q01DX005 (ip), vehicle: Klucel (hydroxypropylcellulose) (HPC)",290 % of control
same,T/C,"dose: 4.0 mg/kg/injection, schedule: Q01DX005 (ip), vehicle: suspension in saline",298 % of control
same,T/C,"dose: 4.0 mg/kg/injection, schedule: Q#A X002 (ip), vehicle: saline",98 % of control and 99 % of control
same,T/C,"dose: 5.0 mg/kg/injection, schedule: Q01DX001 (ip), vehicle: other",119 % of control
same,T/C,"dose: 5.0 mg/kg/injection, schedule: Q01DX001 (oral), vehicle: other",161 % of control
same,T/C,"dose: 7.0 mg/kg/injection, schedule: Q01DX001 (ip), vehicle: other",113 % of control and 119 % of control
same,T/C,"dose: 8.0 mg/kg/injection, schedule: Q01DX001 (ip), vehicle: saline with Tween-80",106 % of control
same,T/C,"dose: 8.0 mg/kg/injection, schedule: Q01DX005 (ip), vehicle: Klucel (hydroxypropylcellulose) (HPC)",281 % of control
same,T/C,"dose: 8.0 mg/kg/injection, schedule: Q#A X002 (ip), vehicle: saline",102 % of control
same,T/C,"dose: 10.0 mg/kg/injection, schedule: Q01DX001 (ip), vehicle: other",162 % of control
same,T/C,"dose: 10.0 mg/kg/injection, schedule: Q01DX001 (oral), vehicle: other",210 % of control
same,T/C,"dose: 10.0 mg/kg/injection, schedule: Q07DX003 (ip), vehicle: saline",318 % of control
same,T/C,"dose: 14.0 mg/kg/injection, schedule: Q01DX001 (ip), vehicle: saline with Tween-80",102 % of control
same,T/C,"dose: 16.0 mg/kg/injection, schedule: Q01DX001 (ip), vehicle: saline with Tween-80",104 % of control
same,T/C,"dose: 16.0 mg/kg/injection, schedule: Q01DX001 (oral), vehicle: Klucel (hydroxypropylcellulose) (HPC)",106 % of control
same,T/C,"dose: 16.0 mg/kg/injection, schedule: Q#A X002 (ip), vehicle: saline",102 % of control and 112 % of control
same,T/C,"dose: 20.0 mg/kg/injection, schedule: Q01DX001 (oral), vehicle: other",90 % of control
same,T/C,"dose: 20.0 mg/kg/injection, schedule: Q07DX003 (ip), vehicle: saline",117 % of control
same,T/C,"dose: 28.0 mg/kg/injection, schedule: Q01DX001 (ip), vehicle: other",100 % of control and 103 % of control
same,T/C,"dose: 28.0 mg/kg/injection, schedule: Q01DX001 (ip), vehicle: saline with Tween-80",93 % of control
same,T/C,"dose: 32.0 mg/kg/injection, schedule: Q01DX001 (ip), vehicle: saline with Tween-80",105 % of control
same,T/C,[1],102 % of control
same,T/C,"dose: 32.0 mg/kg/injection, schedule: Q#A X002 (ip), vehicle: saline",100 % of control
same,T/C,"dose: 56.0 mg/kg/injection, schedule: Q01DX001 (ip), vehicle: other",88 % of control
same,T/C,"dose: 56.0 mg/kg/injection, schedule: Q01DX001 (ip), vehicle: saline with Tween-80",93 % of control
same,T/C,"dose: 64.0 mg/kg/injection, schedule: Q01DX001 (ip), vehicle: saline with Tween-80",109 % of control
same,T/C,[2],100 % of control
same,T/C,[3],102 % of control
same,T/C,[4],104 % of control
O=c1ccn(C2OC(CO)C(O)C2O)c(=O)[nH]1 (stereo not drawn),T/C,"dose: 64.0 mg/kg/injection, schedule: Q01DX005 (ip), vehicle: saline",93 % of control
same,T/C,"dose: 128.0 mg/kg/injection, schedule: Q01DX005 (ip), vehicle: saline",89 % of control and 100 % of control
same,T/C,"dose: 256.0 mg/kg/injection, schedule: Q01DX005 (ip), vehicle: saline",102 % of control and 109 % of control
same,T/C,"dose: 512.0 mg/kg/injection, schedule: Q01DX005 (ip), vehicle: saline",96 % of control and 108 % of control
